The source of these data is patent US20210315893A1 (Galapagos NV, priority 2017, published 2021).

The structures appear in SMILES notation.

By EC50 is commonly meant the concentration giving half of the maximal effect.

Test [1] addresses T1, S1PR2 (Homo sapiens, UniProt O95136).
T1 construct: expressed in transfected cells
Nature of the test: S1PR2 binding assay (competition with radioactively labeled S1P, SpA). The conditions noted are these: membranes from stable cell line over expressing S1PR2, SpA beads; read-out: S1P2 EC50 (nM), S1PR2 binding EC50. The essentials:
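Scintillation proximity read-out after 2 h room-temperature incubation of compound, [3H]S1P and S1PR2-overexpressing cell membranes on WGA-coated beads. Buffer: 20 mM Tris pH 7.5, 100 mM NaCl, 10 mM MgCl2, 1 mM Na3VO4, 0.4% fatty-acid-free BSA; plates counted immediately after centrifugation.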

In test [2] the target is T2, human GPCR sphingosine 1-phosphate receptor 2 (Homo sapiens, UniProt O95136).
T2 construct: host or cells: CHO
T2 sequence (O95136 whole entry): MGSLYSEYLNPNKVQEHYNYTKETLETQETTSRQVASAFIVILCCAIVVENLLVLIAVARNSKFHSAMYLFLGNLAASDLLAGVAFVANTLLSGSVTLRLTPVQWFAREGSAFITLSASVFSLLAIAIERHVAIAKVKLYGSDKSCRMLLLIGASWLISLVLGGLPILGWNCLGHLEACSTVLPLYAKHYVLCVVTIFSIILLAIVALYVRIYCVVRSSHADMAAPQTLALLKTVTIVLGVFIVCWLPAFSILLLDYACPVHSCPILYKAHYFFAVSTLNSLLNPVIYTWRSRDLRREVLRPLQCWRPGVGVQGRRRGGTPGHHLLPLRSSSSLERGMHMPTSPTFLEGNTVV
Nature of the test: S1PR2 antagonist Ca2+ flux assay. Format: cell-based. The conditions noted are these: antagonist mode, CHO-S1PR2 cells, S1P at EC80, Ca2+ fluorescence; read-out: S1P2 EC50 (nM), S1P2 antagonist EC50. In outline:
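Antagonist mode: 15 min after compound addition, S1P (EC80) stimulates Fluo8-loaded, 1 h-starved CHO-S1PR2 cells, Ca2+ read over 3 min; a prior 3-min read checks compound agonism. EC50 from peak/baseline fluorescence ratio, normalised versus vehicle and S1P EC50 (antagonist) or EC100 (agonist).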
In general terms: Calcium flux is commonly read through the fluorescence of an indicator in the cells.

The target in test [3] is T3, human GPCR sphingosine 1-phosphate receptor 1 (Homo sapiens, UniProt P21453).
T3 construct: host or cells: CHO
T3 sequence (P21453 whole entry): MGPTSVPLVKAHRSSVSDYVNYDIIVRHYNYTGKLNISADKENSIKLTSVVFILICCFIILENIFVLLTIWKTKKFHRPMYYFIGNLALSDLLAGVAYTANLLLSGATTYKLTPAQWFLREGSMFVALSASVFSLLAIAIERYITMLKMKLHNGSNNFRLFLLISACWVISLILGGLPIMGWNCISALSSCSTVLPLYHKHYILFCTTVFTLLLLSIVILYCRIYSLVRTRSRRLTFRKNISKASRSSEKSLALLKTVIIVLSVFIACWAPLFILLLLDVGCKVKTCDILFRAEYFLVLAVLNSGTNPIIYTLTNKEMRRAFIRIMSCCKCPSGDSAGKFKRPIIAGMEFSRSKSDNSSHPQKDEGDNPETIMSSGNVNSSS
Nature of the test: S1PR1 selectivity Ca2+ flux assay (antagonist readout). Format: cell-based. The conditions noted are these: antagonist readout, CHO cells overexpressing human S1PR1 and Gq, S1P at EC80 (6 nM); read-out: S1P1 EC50 (nM), S1P1 antagonist EC50. As for the experimental part: 50 μL of Chinese hamster ovary (CHO) cells stably overexpressing human S1PR1 or S1PR5 are seeded in 384 well sterile microplates (7,500 cells/well or 10,000 cells/well respectively) and are incubated overnight at 37° C. under 5% CO2. Cells are subsequently washed twice with 25 μL/well of starvation medium (F-12 Ham's medium containing 0.1% fatty acid free bovine serum albumin (FAF BSA)). After one h starvation at 37° C., 5% CO2, cells are loaded with 25 μL of Fluo 8 dye diluted in Hank's balanced salt solution (HBSS) with 20 mM Hepes complemented with 5 mM of probenecid following the recommendations of the manufacturer (one h at 37° C., 5% CO2). Dilution series of compounds are prepared in HBSS buffer with 20 mM Hepes and 0.1% BSA (FAF). 10 μL of diluted compound is added to the cells using the FDSS/pCELL and intracellular calcium changes are measured immediately by recording fluorescence during 3 min (agonist readout). The ratio of maximal signal over background before compound injection is used to determine compound response.
After an incubation of 15 min at 37° C., following the agonist readout, the plates are transferred to the FDSS/pCELL reader. […] The ratio of maximal signal over background before S1P injection was used to determine the inhibitory effect ofthe compound.
Raw data obtained in each experiment (ratio of maximal signal over background for calcium mobilization assays) were normalized in percentage of activation (agonist mode) or inhibition (antagonist mode) using positive and negative experiment controls. Each individual plate quality was assessed by evaluation of Z′ factor calculated with raw data using the following equation
Y=bottom+(top−bottom)/(1+(10^(Log IC50−X)*Hillslope)) where X is the logarithm of the concentration of the compound

Test [4] has as its system HFL-1 cells. Nature of the test: IL-8 production assay (S1P induced IL-8). The conditions noted are these: Homo sapiens, HFL1; S1P (1 μM) induced IL-8 in HFL-1 cells, starvation medium without HSA; read-out: IL8 EC50. Format: cell-based. In outline: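 HFL-1 fibroblasts in low-serum medium were pretreated 1 h with a 10-point 1/3 series of compound starting at 30 μM (0.3% DMSO).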

Test [5] concerns HFL-1 cells. Nature of the test: IL8 assay in the presence of Human Serum Albumin. The conditions noted are these: HFL1, read-out: HSA IL8 EC50.

T1 sequence (O95136 whole entry): as the sequence (O95136 whole entry) above

For the compound `O=C(Cn1nc(Cc2nc3cc(OC(F)(F)F)c(Cl)cc3[nH]2)c2ccccc2c1=O)N[C@H]1CCC[C@H]1O` [Compound 140, 2-[4-[[6-chloro-5-(trifluoromethoxy)-1H-benzimidazol-2-yl]methyl]-1-oxo-phthalazin-2-yl]-N-[(1S,2R)-2-hydroxycyclopentyl]acetamide], the half-maximal effective concentration (EC50) is 29.8 nM in test [1]; 13 nM in test [2]; at least 19900 nM in test [3]; 0.115 µM in test [4]; 1.11 µM in test [5].
The like results for `O=C(Cn1nc(Cc2nc3cc(OC(F)(F)F)c(Cl)cc3[nH]2)c2ccccc2c1=O)N1CCOCC1` [Compound 142, 4-[[6-chloro-5-(trifluoromethoxy)-1H-benzimidazol-2-yl]methyl]-2-(2-morpholino-2-oxo-ethyl)phthalazin-1-one] were, in that order, 103 nM, 30.1 nM, at least 19900 nM, 0.191 µM and 0.953 µM.
Regarding `O=C(Cn1nc(Cc2nc3cc(Cl)c(OC(F)(F)F)cc3[nH]2)c2c(c1=O)CCCC2)N1CCOCC1` [Compound 145, 4-[[5-chloro-6-(trifluoromethoxy)-1H-benzimidazol-2-yl]methyl]-2-(2-morpholino-2-oxo-ethyl)-5,6,7,8-tetrahydrophthalazin-1-one], the concentration giving a half-maximal response (EC50) in test [1] was 80.2 nM; in test [2], 42.6 nM; in test [3], at least 19900 nM; in test [4], 0.0893 µM; in test [5], 0.331 µM.
Take `O=C(Cn1nc(Cn2cc3cc(OCC4CC4)c(Cl)cc3n2)c2ccccc2c1=O)N1CCOCC1` [Compound 148, 4-[[6-chloro-5-(cyclopropylmethoxy)indazol-2-yl]methyl]-2-(2-morpholino-2-oxo-ethyl)phthalazin-1-one]: the EC50 in test [1] was 32.1 nM; in test [2], 41.5 nM; in test [3], at least 19900 nM; in test [4], 0.0689 µM; in test [5] it was 0.785 µM.
In the case of `CCOc1cc2cn(Cc3nn(CC(=O)O)c(=O)c4ccccc34)nc2cc1Cl` [Compound 251, 2-[4-[(6-chloro-5-ethoxy-indazol-2-yl)methyl]-1-oxo-phthalazin-2-yl]acetic acid], the EC50 in test [1] was 113 nM; in test [2] it was 179 nM; in test [3], at least 19900 nM; in test [4], 0.111 µM; in test [5] it was 3.46 µM.
The like results for `O=C(O)Cn1nc(Cn2cc3cc(OCC(F)(F)F)c(Cl)cc3n2)c2ccccc2c1=O` [Compound 252, 2-[4-[[6-chloro-5-(2,2,2-trifluoroethoxy)indazol-2-yl]methyl]-1-oxo-phthalazin-2-yl]acetic acid] were, in that order, 239 nM, 62.6 nM, at least 19900 nM, 0.145 µM and 16.5 µM.
The like results for `O=C(O)Cn1nc(Cn2cc3cc(OCC(F)F)c(Cl)cc3n2)c2ccccc2c1=O` [Compound 253, 2-[4-[[6-chloro-5-(2,2-difluoroethoxy)indazol-2-yl)methyl]-1-oxo-phthalazin-2-yl]acetic acid] were, in that order, 182 nM, 184 nM, at least 19900 nM, 0.29 µM and 4.13 µM.
